Reference: ChEMBL document CHEMBL1129525 (J Med Chem, 1996)

Legend:
Toxoplasma gondii = assay: Inhibition of Toxoplasma gondii cell growth; type: functional, organism-based
Dihydrofolate reductase [1] = target: T1, Dihydrofolate reductase (Pneumocystis carinii, UniProt P16184)
T1 sequence (P16184 whole entry): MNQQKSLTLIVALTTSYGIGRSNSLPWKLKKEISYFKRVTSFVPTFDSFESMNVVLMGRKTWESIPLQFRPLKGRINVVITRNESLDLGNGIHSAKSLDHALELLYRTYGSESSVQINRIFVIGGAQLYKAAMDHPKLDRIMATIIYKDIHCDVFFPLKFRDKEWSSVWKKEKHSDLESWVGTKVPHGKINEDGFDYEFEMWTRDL
Description: Inhibitory activity against Pneumocystis carinii dihydrofolate reductase

[2] = target: T2, Bifunctional dihydrofolate reductase-thymidylate synthase (Toxoplasma gondii, UniProt Q07422)
T2 sequence (Q07422 whole entry): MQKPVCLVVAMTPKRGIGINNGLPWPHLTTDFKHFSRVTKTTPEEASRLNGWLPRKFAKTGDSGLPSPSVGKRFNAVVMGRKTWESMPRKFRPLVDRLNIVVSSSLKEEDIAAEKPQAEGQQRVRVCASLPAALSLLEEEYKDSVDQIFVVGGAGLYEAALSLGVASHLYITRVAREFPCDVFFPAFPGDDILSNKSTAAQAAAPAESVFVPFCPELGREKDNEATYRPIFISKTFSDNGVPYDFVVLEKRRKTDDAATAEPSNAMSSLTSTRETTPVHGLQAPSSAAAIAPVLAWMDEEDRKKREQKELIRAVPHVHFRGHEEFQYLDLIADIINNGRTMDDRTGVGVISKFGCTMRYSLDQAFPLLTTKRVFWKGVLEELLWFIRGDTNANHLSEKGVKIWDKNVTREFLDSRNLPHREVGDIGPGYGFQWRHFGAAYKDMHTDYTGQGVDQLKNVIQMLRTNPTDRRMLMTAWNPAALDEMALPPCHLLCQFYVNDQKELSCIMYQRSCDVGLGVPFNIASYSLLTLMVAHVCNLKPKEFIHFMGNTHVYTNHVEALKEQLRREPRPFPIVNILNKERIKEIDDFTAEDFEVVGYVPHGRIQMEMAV
Description: Inhibitory activity against Toxoplasma gondii dihydrofolate reductase

Dihydrofolate reductase [3] = target: T3, Dihydrofolate reductase (Rattus norvegicus, UniProt Q920D2)
T3 sequence (Q920D2 whole entry): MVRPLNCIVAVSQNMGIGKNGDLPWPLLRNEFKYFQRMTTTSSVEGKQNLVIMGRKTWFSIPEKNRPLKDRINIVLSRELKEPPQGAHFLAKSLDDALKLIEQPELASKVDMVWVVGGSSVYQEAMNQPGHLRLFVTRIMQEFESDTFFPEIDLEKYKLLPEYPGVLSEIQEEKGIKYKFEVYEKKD
Description: Inhibitory activity against rat liver dihydrofolate reductase

| Structure (SMILES) | IC50 (Toxoplasma gondii) [nM] | IC50 (Dihydrofolate reductase [1]) [nM] | IC50 [2] [nM] | IC50 (Dihydrofolate reductase [3]) [nM] |
| --- | --- | --- | --- | --- |
| Nc1nc(N)c2nc(CSc3ccccc3)cnc2n1 | 10000 | 9500 | – | – |
| COc1ccc(OC)c(Cc2cnc3nc(N)nc(N)c3c2C)c1 [PIRITREXIM] | 20 | – | – | – |
| COc1cc(NCc2cnc3nc(N)nc(N)c3n2)cc(OC)c1OC | 11000 | 7000 | 1000 | 1900 |
| COc1cc(NCc2cnc3nc(N)nc(N)c3c2C)cc(OC)c1 | 60 | 49 | 3.5 | 31 |
| Cc1c(CSc2ccccc2)cnc2nc(N)nc(N)c12 | 200 | 440 | 34 | 430 |
| COc1ccc(OC)c(CCc2cnc3nc(N)nc(N)c3c2C)c1 | 100 | 340 | 7.9 | 770 |
| COc1cc(OC)cc(N(C)Cc2cnc3nc(N)nc(N)c3c2C)c1 | 10 | 50 | 4 | 13 |
| Cc1ccc(SCc2cnc3nc(N)nc(N)c3n2)cc1 | 5000 | – | 15000 | 26000 |
| Nc1nc(N)c2nc(CSc3cccc(Cl)c3)cnc2n1 | > 10000 | 42200 | 5700 | 26600 |
| Cc1c(CSc2cccc3ccccc23)cnc2nc(N)nc(N)c12 | 40 | 290 | 30 | 550 |
| Cc1c(CSc2ccc(Cl)cc2)cnc2nc(N)nc(N)c12 | 300 | 360 | 90 | 370 |
| Nc1nc(N)c2cc(CNc3cccc4ccccc34)ccc2n1 | 60 | 210 | 27 | 55 |
| COc1ccc(NCc2cnc3nc(N)nc(N)c3c2C)cc1OC | 600 | 51 | 2.7 | 6.5 |
| COc1ccc(SCc2cnc3nc(N)nc(N)c3n2)cc1OC | 5000 | 58200 | 23200 | 36300 |
| COc1cccc(C)c1NCc1cnc2nc(N)nc(N)c2n1 | 5000 | 15800 | 1850 | 5700 |
| Nc1nc(N)c2nc(CCc3cccc4ccccc34)cnc2n1 | 1000 | – | 820 | 60000 |
| Cc1c(CSc2cccc(Cl)c2)cnc2nc(N)nc(N)c12 | 150 | 68 | 90 | 190 |
| COc1cc(NCc2cnc3nc(N)nc(N)c3n2)cc(OC)c1 | 1000 | 960 | 110 | 880 |
| COc1ccc(SCc2cnc3nc(N)nc(N)c3c2C)cc1 | 300 | 560 | – | – |

| Structure (SMILES) | IC50 (Toxoplasma gondii) [nM] | IC50 (Dihydrofolate reductase [1]) [nM] | IC50 [2] [nM] | IC50 (Dihydrofolate reductase [3]) [nM] |
| --- | --- | --- | --- | --- |
| Cc1cccc(SCc2cnc3nc(N)nc(N)c3n2)c1 | 4000 | 21200 | 1800 | 8480 |
| COc1ccc(OC)c(N(C)Cc2cnc3nc(N)nc(N)c3c2C)c1 | 200 | 700 | 28 | 460 |
| Cc1c(CNc2ccc(Cl)cc2)cnc2nc(N)nc(N)c12 | 150 | 110 | 32 | 72 |
| COc1ccc(C(F)(F)F)cc1NCc1cnc2nc(N)nc(N)c2n1 | 2000 | 21000 | 10600 | 21000 |
| Cc1c(CNc2cccc3ccccc23)cnc2nc(N)nc(N)c12 | 12 | 220 | 240 | 110 |
| COc1ccc(C(F)(F)F)cc1NCc1cnc2nc(N)nc(N)c2c1C | 20 | 44 | 22 | 20 |
| COc1ccc(SCc2cnc3nc(N)nc(N)c3n2)cc1 | 3000 | 17200 | 14000 | 10200 |
| COc1ccc(NCc2cnc3nc(N)nc(N)c3c2C)c(OC)c1 | 200 | 91 | 10 | 61 |
| COc1cccc(SCc2cnc3nc(N)nc(N)c3n2)c1 | 5000 | 9900 | 1600 | 7700 |
| CCOc1ccc(OCC)c(N(C)Cc2cnc3nc(N)nc(N)c3c2C)c1 | 60 | 167 | 29 | 530 |
| COc1ccc(OC)c(CCc2cnc3nc(N)nc(N)c3n2)c1 | 5000 | 11100 | 5400 | 23200 |
| COc1ccc(OC)c(NCc2cnc3nc(N)nc(N)c3c2C)c1 | 200 | 11 | 14 | 10 |
| COc1cc(NCc2cnc3nc(N)nc(N)c3c2C)cc(OC)c1OC | 1000 | – | – | 5.4 |
| COc1ccc(OC)c(NCc2ccc3nc(N)nc(N)c3c2)c1 | 600 | 750 | 140 | 460 |
| Nc1nc(N)c2nc(CSc3cccc4ccccc34)cnc2n1 | 3000 | 4200 | 7000 | 8200 |
| COc1cccc(SCc2cnc3nc(N)nc(N)c3c2C)c1 | 200 | 340 | 110 | 600 |
| COc1cc(NCc2cnc3nc(N)nc(N)c3c2C)cc(C(F)(F)F)c1 | 200 | 20 | 18 | 17 |
| COc1ccc(NCc2cnc3nc(N)nc(N)c3c2C)c(C)c1 | 600 | 170 | 7.2 | 29 |
| Cc1c(CN(C)c2cccc3c2CCCC3)cnc2nc(N)nc(N)c12 | 20 | 150 | 16 | 140 |

| Structure (SMILES) | IC50 (Toxoplasma gondii) [nM] | IC50 (Dihydrofolate reductase [1]) [nM] | IC50 [2] [nM] | IC50 (Dihydrofolate reductase [3]) [nM] |
| --- | --- | --- | --- | --- |
| COc1ccc(N(C)Cc2cnc3nc(N)nc(N)c3c2C)cc1OC | 150 | 29 | 2.9 | 5.2 |
| COc1ccc(C(F)(F)F)cc1N(C)Cc1cnc2nc(N)nc(N)c2c1C | 200 | 93 | 38 | 230 |
| Cc1ccc(SCc2cnc3nc(N)nc(N)c3c2C)cc1 | 300 | 530 | 57 | 500 |
| Cc1ccc(C)c(NCc2cnc3nc(N)nc(N)c3c2C)c1 | 10 | 30 | 16 | 120 |
| Cc1cc(Cl)ccc1NCc1ccc2nc(N)nc(N)c2c1 | 200 | 330 | 33 | 23 |
| Nc1nc(N)c2cc(CNc3ccc(Cl)cc3)cnc2n1 | 4000 | 970 | 300 | 720 |
| COc1cccc(C)c1NCc1cnc2nc(N)nc(N)c2c1C | 300 | 1000 | 100 | 320 |
| COc1ccc(OC)c(NCc2cnc3nc(N)nc(N)c3n2)c1 | 5000 | 6200 | 6900 | 22900 |
| COc1ccc(OC)c(N(C)Cc2cnc3nc(N)nc(N)c3n2)c1 | 1600 | 3900 | 210 | 470 |
| CCc1nc(N)nc(N)c1-c1ccc(Cl)cc1 [PYRIMETHAMINE] | 400 | – | – | – |
| COc1cc(NCc2cnc3nc(N)nc(N)c3n2)cc(C(F)(F)F)c1 | 1000 | 680 | 890 | 1900 |
| Nc1nc(N)c2cc(CNc3cccc4ccccc34)cnc2n1 | 800 | 260 | 150 | 230 |
| Cc1cccc(SCc2cnc3nc(N)nc(N)c3c2C)c1 | 200 | 170 | 65 | 330 |
| COc1ccc(C)c(NCc2cnc3nc(N)nc(N)c3n2)c1 | 1000 | > 3000 | 440 | > 3000 |
| CCOc1ccc(OCC)c(NCc2cnc3nc(N)nc(N)c3c2C)c1 | 60 | 125 | 22 | 370 |
| COc1cc(NCc2cnc3nc(N)nc(N)c3c2)cc(OC)c1OC | 15000 | – | 130 | 810 |
| COc1ccc(C)c(NCc2cnc3nc(N)nc(N)c3c2C)c1 | 30 | 38 | 23 | 150 |
| COc1ccc(SCc2cnc3nc(N)nc(N)c3c2C)cc1OC | 5000 | 150 | 30 | 180 |
| Nc1nc(N)c2nc(CNc3cccc4ccccc34)cnc2n1 | 250 | – | 76 | 1260 |
